These results are taken from ChEMBL document CHEMBL1150095, “Antitumor activity and stereochemistry of acetylenic alcohols from the sponge Cribrochalina vasculum” (1995).

One assay has as its system IGROV-1. Put plainly: Antitumor activity against human IGROV1 cells. The format is functional.
Another assay concerns NCI-H522. Put plainly: Antitumor activity against human NCI-H522 cells. The format is functional.

The source made the active and inactive calls. No cut-off for these calls is given here.

Turning to `C#C[C@@H](O)/C=C/CCCCCCCCCCC(C)CCCC` (some centres not stated), the result in the assay on IGROV-1 and with NCI-H522 was Active.
